# Read-outs that look alike come from different tables or passages of the source.
# Assays:
# SNB-19 = assay: WST-1 test, glioblastoma cells; type: cell-based, human
# Protocol: (§1) Hybrids 4–14 were tested as anticancer agents against four human cancer cell lines: colon cancer (Caco-2), glioblastoma (SNB-19), lung cancer (A549), ovarian cancer (SKOV-3), and normal human dermal fibroblasts (NHDFs). Cisplatin was used as the reference substance. The results are presented as the compound concentration of the compound (μM) that inhibits the growth of 50% of cancer cells compared to control cells (IC50). A negative value (Neg) means that the compound concentration of the tested hybrids was greater than 500 µM. […] It is generated only by a weak van der Waals interaction with Arg84. […] There is also a visible difference in activity depending on the type of group present on the triazole ring (substituent C in Figure 2). The results obtained indicate that hybrids containing aromatic systems as a C substituent in their structure, especially another quinoline molecule (compounds 9 and 10), have high activity.
# (§2) Cell cultures were performed in 96-well plates (Nunc Thermo Fisher Scientific, Waltham, MA, USA). Cells were seeded at 5 × 10^4/well and incubated for 24 h (at 37 °C, 5% CO2, and constant humidity). The medium was replaced with fresh with the addition of test compounds at a concentration of 0.1–100 µg/mL of DMSO and incubated again for another 72 h. After this time, the WST-1 test (Roche Molecular Biochemicals, Mannheim, Germany) was performed to assess the metabolic activity of the cells. Absorbance was measured at λ = 450 nm using a UVM340 microplate reader (Biogenet, Józefów, Poland). Results are expressed as the mean value of at least three independent experiments performed in triplicate.
# A549 [1] = system: A549; parameters: method as in doi:10.1016/j.arabjc.2016.10.009; settings: values marked *; read-out: IC50 A-549; cited from earlier work
# NHDF = assay: WST-1 test, normal human dermal fibroblasts; type: cell-based; settings: Homo sapiens, NHDF; 72 h, WST-1, normal cells
# Protocol: as §1, §2
# Caco-2 = assay: WST-1 test, colon cancer cells; type: cell-based, human; settings: Homo sapiens, Caco-2, 72 h
# Protocol: Hybrids 4–14 were tested as anticancer agents against four human cancer cell lines: colon cancer (Caco-2), glioblastoma (SNB-19), lung cancer (A549), ovarian cancer (SKOV-3), and normal human dermal fibroblasts (NHDFs).
# as §2
# SKOV-3 = assay: WST-1 test, ovarian cancer cells; type: cell-based, human; settings: Homo sapiens, SK-OV-3, 72 h
# Protocol: as §1, §2
# HCC = settings: Figure 1; cited from earlier work
# ROCK1 = settings: read-out: IC50 for ROCK1; cited from earlier work
# A549 [2] = assay: WST-1 test, lung cancer cells; type: cell-based, human; settings: Homo sapiens, A549, 72 h, read-out: IC50 A-549
# Protocol: as §1, §2
"IC50 (SNB-19; Homo sapiens, SNB-19, 72 h)",IC50 (Caco-2),IC50 (SKOV-3),IC50 (SNB-19; 72 h),IC50 (A549 [2]),melting point,Compound,IC50 (A549 [1]),IC50 (NHDF),IC50 HCC (HCC),IC50 (ROCK1)
0.44 µM,0.38 µM,53.9 µM,,,,"CCCCn1cc(CNS(=O)(=O)c2cccc3cccnc23)nn1 [Compound 12a, 8-N-{[1-(1-butyl)-1H-1,2,3-triazol-4-yl]methyl}quinolinesulfonamide]",> 500 µM,> 500 µM,,
≤ 0.4 µM,0.32 µM,64.6 µM,0.39 µM,,,"CCOC(=O)CCn1cc(CNS(=O)(=O)c2cccc3cccnc23)nn1 [Compound 13a, Ethyl 3-{[4-(8-sulfamoylquinolyl)methyl]-1H-1,2,3-triazol-1-yl}propanoate]",> 500 µM,223 µM,,
129 µM,0.36 µM,143 µM,,18.1 µM,149 to 150 °C,"Cc1cn(C2CC(n3cc(CNS(=O)(=O)c4cccc5cccnc45)nn3)C(CO)O2)c(=O)[nH]c1=O [Compound 11a, 8-N-({1-[(2R, 3S, 5S)-2-(Hydroxymethyl)-5-(5-methyl-2,4-dioxo-3,4-dihydropyrimidin-1(2H)-yl)tertrahydrofuran-3-yl]-1H-1,2,3-triazol-4-yl}methyl)quinolinesulfonamide]",,195 µM,,

# More lines, now with the values behind:
Compound,"IC50 (SNB-19; Homo sapiens, SNB-19, 72 h)",IC50 (Caco-2),IC50 (SKOV-3),IC50 (SNB-19; 72 h),IC50 (A549 [2]),melting point,IC50 (A549 [1]),IC50 (NHDF),IC50 HCC (HCC),IC50 (ROCK1)
"C=C(Cn1cc(CN(C)S(=O)(=O)c2cccc3cccnc23)nn1)[C@@H]1CC[C@]2(COC(C)=O)CC[C@]3(C)[C@H](CC[C@@H]4[C@@]5(C)CC[C@H](OC(C)=O)C(C)(C)[C@@H]5CC[C@]43C)[C@@H]12 [Compound 14b, 8-N-methyl-N-({1-[3β, 28-diacetoxylup-20(29)-en-30-yl]-1H-1,2,3-triazol-4-yl}methyl)-quinolinesulfonamide]",9.26 µM,18.2 µM,1.09 µM,,,,> 500 µM,> 500 µM,,
O=S(=O)(c1cccc2cnccc12)N1CCCNCC1 [Fasudil],,,,,,,,,0.04 µg/mL,[…]
"O=S(=O)(NCc1cn(-c2ccnc3cc(Cl)ccc23)nn1)c1cccc2cccnc12 [Compound 9a, 8-N-{[1-(7-chloroquinolin-4-yl)-1H-1,2,3-triazol-4-yl]methyl}quinolinesulfonamide]",62.4 µM,18 µM,108 µM,,,,> 500 µM,> 500 µM,,

# Source: paper PMC11243625, “Synthesis, Docking, and Machine Learning Studies of Some Novel Quinolinesulfonamides–Triazole Hybrids with Anticancer Activity” (Molecules, 2024)
